Reference: patent publication US9908868B2, “Isoindolinone compounds as GPR119 modulators for the treatment of diabetes, obesity, dyslipidemia and related disorders” (SANOFI, priority 2014, dated 2018)

Each molecule was assayed against T1, human GPR119 (Homo sapiens, UniProt Q8TDV5) (assay: Functional cellular assay measuring GPR119-mediated cAMP release (HTRF) in HEK-293 cells stably expressing recombinant human GPR119). Settings: cAMP response, cell line expressing human GPR119, 30 minutes at room temperature.
T1 construct: expressed in transfected cells
T1 sequence (Q8TDV5 1-335): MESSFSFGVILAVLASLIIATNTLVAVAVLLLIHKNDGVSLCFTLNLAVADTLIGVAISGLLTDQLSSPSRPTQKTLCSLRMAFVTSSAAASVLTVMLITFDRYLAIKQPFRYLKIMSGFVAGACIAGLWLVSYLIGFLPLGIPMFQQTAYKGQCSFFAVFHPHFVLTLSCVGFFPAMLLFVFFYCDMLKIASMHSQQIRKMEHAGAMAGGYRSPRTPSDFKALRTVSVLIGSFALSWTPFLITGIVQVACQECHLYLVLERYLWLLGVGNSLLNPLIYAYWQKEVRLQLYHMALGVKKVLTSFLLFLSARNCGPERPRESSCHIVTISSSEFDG
Assay type: cell-based
Method in brief: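 HEK-293 cells stably expressing recombinant human GPR119, suspended at 400000 cells/mL in HBSS/20 mM HEPES/0.1% BSA/2 mM IBMX, exposed to compound for 30 minutes at room temperature. cAMP detected by HTRF (665/620 nm ratio) after 1 h with reagents in lysis buffer. EC50 taken as concentration giving 50% of maximal activation.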

Row | SMILES | EC50
1 | CN(C)C(=O)C1NC(=O)c2cc(N3CC[C@@H](Oc4ccc(OCC5CC5)nc4)C3=O)ccc2N1C (single isomer, unassigned) [Example 1-41] | 2030 nM
2 | CN(C)C(=O)CN1Cc2c(F)cc(N3CC[C@@H](Oc4ccc(OCC(F)(F)F)nc4)C3=O)cc2C1=O [Example 6-01, 2-[4-fluoro-1-oxo-6-[(3R)-2-oxo-3-[[6-(2,2,2-trifluoroethoxy)-3-pyridyl]oxy]pyrrolidin-1-yl]isoindolin-2-yl]-N,N-dimethyl-acetamide] | 77 nM
3 | CN(C)C(=O)CN1Cc2ccc(N3CC[C@@H](Oc4ccc(-c5ncc(F)s5)cc4)C3=O)cc2C1=O [Example 2-64, 2-[6-[(3R)-3-[4-(5-fluorothiazol-2-yl)phenoxy]-2-oxo-pyrrolidin-1-yl]-1-oxo-isoindolin-2-yl]-N,N-dimethyl-acetamide] | 38 nM
4 | NC(=O)CN1Cc2ccc(N3CC[C@@H](Oc4ccc(OCC5CC5)nc4)C3=O)cc2C1=O [Example 4-07, 2-[6-[(3R)-3-[[6-(cyclopropylmethoxy)-3-pyridyl]oxy]-2-oxo-pyrrolidin-1-yl]-1-oxo-isoindolin-2-yl]acetamide] | 163 nM
5 | CN(CCO)C(=O)CN1Cc2ccc(N3CC[C@@H](Oc4ccc(OCC(F)(F)F)nc4)C3=O)cc2C1=O [Example 1-45, N-(2-hydroxyethyl)-N-methyl-2-[1-oxo-6-[(3R)-2-oxo-3-[[6-(2,2,2-trifluoroethoxy)-3-pyridyl]oxy]pyrrolidin-1-yl]isoindolin-2-yl]acetamide] | 179 nM
6 | CN(C)C(=O)CN1Cc2ccc(N3CC[C@@H](Oc4ccc(-c5nccs5)cc4)C3=O)cc2C1=O [Example 2-42, N,N-dimethyl-2-[1-oxo-6-[(3R)-2-oxo-3-(4-thiazol-2-ylphenoxy)pyrrolidin-1-yl]isoindolin-2-yl]acetamide] | 117 nM
7 | O=C(CN1Cc2ccc(N3CC[C@@H](Oc4ccc(OCC(F)(F)F)nc4)C3=O)cc2C1=O)N1CCC1 [Example 4-42, 2-[2-(azetidin-1-yl)-2-oxo-ethyl]-6-[(3R)-2-oxo-3-[[6-(2,2,2-trifluoroethoxy)-3-pyridyl]oxy]pyrrolidin-1-yl]isoindolin-1-one] | 39 nM
8 | CCOc1ccc(O[C@@H]2CCN(c3cc(F)c4c(c3)C(=O)N(CC(=O)N3CCCC3)C4)C2=O)cn1 [Example 4-17, 6-[(3R)-3-[(6-ethoxy-3-pyridyl)oxy]-2-oxo-pyrrolidin-1-yl]-4-fluoro-2-(2-oxo-2-pyrrolidin-1-yl-ethyl)isoindolin-1-one] | 191 nM
9 | CN(C)C(=O)CN1Cc2ccc(N3CC[C@@H](Oc4ccc(C(=O)CCC(F)(F)F)cc4)C3=O)cc2C1=O [Example 2-66, N,N-dimethyl-2-[1-oxo-6-[(3R)-2-oxo-3-[4-(4,4,4-trifluorobutanoyl)phenoxy]pyrrolidin-1-yl]isoindolin-2-yl]acetamide] | 52 nM
10 | C[S@+]([O-])CN1Cc2ncc(N3CC[C@@H](Oc4ccc(OCC(F)(F)F)nc4)C3=O)cc2C1=O [Example 1-68, 6-((S)-methanesulfinylmethyl)-3-{(R)-2-oxo-3-[6-(2,2,2-trifluoro-ethoxy)-pyridin-3-yloxy]-pyrrolidin-1-yl}-6,7-dihydro-pyrrolo[3,4-b]pyridin-5-one] | 143 nM
11 | CC1(CN2Cc3c(F)cc(N4CC[C@@H](Oc5ccc(OCCC6CC6)nc5)C4=O)cc3C2=O)COC1 [Example 5-03, 6-[(3R)-3-[[6-(2-cyclopropylethoxy)-3-pyridyl]oxy]-2-oxo-pyrrolidin-1-yl]-4-fluoro-2-[(3-methyloxetan-3-yl)methyl]isoindolin-1-one] | 2530 nM
12 | CN(C)C(=O)CN1Cc2ccc(N3CC[C@@H](Oc4ccc(C(=O)CCC5CC5)nc4)C3=O)cc2C1=O [Example 2-57, 2-[6-[(3R)-3-[[6-(3-cyclopropylpropanoyl)-3-pyridyl]oxy]-2-oxo-pyrrolidin-1-yl]-1-oxo-isoindolin-2-yl]-N,N-dimethyl-acetamide] | 50 nM
13 | CN(C)C(=O)CN1Cc2ccc(N3CC[C@@H](Oc4ccc(Oc5ccc(F)cc5)cc4)C3=O)cc2C1=O [Example 2-16, 2-[6-[(3R)-3-[4-(4-fluorophenoxy)phenoxy]-2-oxo-pyrrolidin-1-yl]-1-oxo-isoindolin-2-yl]-N,N-dimethyl-acetamide] | 47 nM

More lines, now with the values ahead:

Row | EC50 | SMILES
14 | 157 nM | COCCNC(=O)CN1Cc2c(F)cc(N3CC[C@@H](Oc4ccc(OCC5CC5)nc4)C3=O)cc2C1=O [Example 4-23, 2-[6-[(3R)-3-[[6-(cyclopropylmethoxy)-3-pyridyl]oxy]-2-oxo-pyrrolidin-1-yl]-4-fluoro-1-oxo-isoindolin-2-yl]-N-(2-methoxyethyl)acetamide]
15 | 131 nM | CNC(=O)CN1Cc2ccc(N3CC[C@@H](Oc4ccc(OCC(F)(F)F)nc4)C3=O)cc2C1=O [Example 4-38, N-methyl-2-[1-oxo-6-[(3R)-2-oxo-3-[[6-(2,2,2-trifluoroethoxy)-3-pyridyl]oxy]pyrrolidin-1-yl]isoindolin-2-yl]acetamide]
16 | 562 nM | O=C(CN1Cc2ccc(N3CC[C@@H](Oc4ccc(OCC(F)(F)F)nc4)C3=O)cc2C1=O)NC1CC1 [Example 4-36, N-cyclopropyl-2-[1-oxo-6-[(3R)-2-oxo-3-[[6-(2,2,2-trifluoroethoxy)-3-pyridyl]oxy]pyrrolidin-1-yl]isoindolin-2-yl]acetamide]
17 | 12000 nM | CN(C)C(=O)CN1Cc2ccc(N3CC[C@@H](Oc4ccc(-n5cncn5)cc4)C3=O)cc2C1=O [Example 2-25, N,N-dimethyl-2-[1-oxo-6-[(3R)-2-oxo-3-[4-(1,2,4-triazol-1-yl)phenoxy]pyrrolidin-1-yl]isoindolin-2-yl]acetamide]
18 | 102 nM | NC(=O)CN1Cc2ccc(N3CC[C@@H](Oc4ccc(C(=O)c5ccc(F)cc5)cc4)C3=O)cc2C1=O [Example 2-50, 2-[6-[(3R)-3-[4-(4-fluorobenzoyl)phenoxy]-2-oxo-pyrrolidin-1-yl]-1-oxo-isoindolin-2-yl]acetamide]
19 | 516 nM | C[S+]([O-])CN1Cc2ncc(N3CC[C@@H](Oc4ccc(C(=O)C5CC5)cc4)C3=O)cc2C1=O (stereo partly drawn) [Example 1-61, 3-[(3R)-3-[4-(cyclopropanecarbonyl)phenoxy]-2-oxo-pyrrolidin-1-yl]-6-(methylsulfinylmethyl)-7H-pyrrolo[3,4-b]pyridin-5-one]
20 | 62 nM | CN(C)C(=O)CN1Cc2ccc(N3CC[C@@H](Oc4ccc(OCC(F)(F)F)nc4)C3=O)cc2C1=O [Example 2-05, N,N-dimethyl-2-[1-oxo-6-[(3R)-2-oxo-3-[[6-(2,2,2-trifluoroethoxy)-3-pyridyl]oxy]pyrrolidin-1-yl]isoindolin-2-yl]acetamide]
21 | > 100000 nM | CCOc1ccc(O[C@@H]2CCN(c3cc(F)c4c(c3)C(=O)N(C(C)(C)C)C4)C2=O)cn1 [Example 1-30, 2-tert-butyl-6-[(3R)-3-[(6-ethoxy-3-pyridyl)oxy]-2-oxo-pyrrolidin-1-yl]-4-fluoro-isoindolin-1-one]
22 | 249 nM | O=C(CN1Cc2ccc(N3CC[C@@H](Oc4ccc(OCC5CC5)nc4)C3=O)cc2C1=O)NCCO [Example 4-05, 2-[6-[(3R)-3-[[6-(cyclopropylmethoxy)-3-pyridyl]oxy]-2-oxo-pyrrolidin-1-yl]-1-oxo-isoindolin-2-yl]-N-(2-hydroxyethyl)acetamide]
23 | 147 nM | C[S+]([O-])CN1Cc2ccc(N3CC[C@@H](Oc4ccc(C(=O)C5CC5)cc4)C3=O)cc2C1=O (stereo partly drawn) [Example 1-60, 6-[(3R)-3-[4-(cyclopropanecarbonyl)phenoxy]-2-oxo-pyrrolidin-1-yl]-2-(methylsulfinylmethyl)isoindolin-1-one]
24 | 4440 nM | CC1c2ccc(N3CC[C@@H](Oc4ccc(OCC5CC5)nc4)C3=O)cc2C(=O)N1CC(=O)O (stereo partly drawn) [Example 1-14, 2-[5-[(3R)-3-[[6-(cyclopropylmethoxy)-3-pyridyl]oxy]-2-oxo-pyrrolidin-1-yl]-1-methyl-3-oxo-isoindolin-2-yl]acetic acid]
25 | 266 nM | O=C(CN1Cc2c(F)cc(N3CC[C@@H](Oc4ccc(OCC5CC5)nc4)C3=O)cc2C1=O)NCCO [Example 4-24, 2-[6-[(3R)-3-[[6-(cyclopropylmethoxy)-3-pyridyl]oxy]-2-oxo-pyrrolidin-1-yl]-4-fluoro-1-oxo-isoindolin-2-yl]-N-(2-hydroxyethyl)acetamide]
26 | 125 nM | CN(C)C(=O)CN1Cc2ccc(N3CC[C@@H](Oc4ccc(C(=O)C5CC5(F)F)cc4)C3=O)cc2C1=O (stereo partly drawn) [Example 2-65, 2-[6-[(3R)-3-[4-(2,2-difluorocyclopropanecarbonyl)phenoxy]-2-oxo-pyrrolidin-1-yl]-1-oxo-isoindolin-2-yl]-N,N-dimethyl-acetamide]
27 | 343 nM | Cc1csc(-c2ccc(O[C@@H]3CCN(c4ccc5c(c4)C(=O)N(CC(=O)N(C)C)C5)C3=O)cc2)n1 [Example 2-31, N,N-dimethyl-2-[6-[(3R)-3-[4-(4-methylthiazol-2-yl)phenoxy]-2-oxo-pyrrolidin-1-yl]-1-oxo-isoindolin-2-yl]acetamide]
28 | 126 nM | NC(=O)CN1Cc2ccc(N3CC[C@@H](Oc4ccc(-c5nccs5)cc4)C3=O)cc2C1=O [Example 2-51, 2-[1-oxo-6-[(3R)-2-oxo-3-(4-thiazol-2-ylphenoxy)pyrrolidin-1-yl]isoindolin-2-yl]acetamide]
29 | 749 nM | O=C(CN1Cc2ccc(N3CC[C@@H](Oc4ccc(OCC5CC5)nc4)C3=O)cc2C1=O)NCc1nnn[nH]1 [Example 4-30, 2-[6-[(3R)-3-[[6-(cyclopropylmethoxy)-3-pyridyl]oxy]-2-oxo-pyrrolidin-1-yl]-1-oxo-isoindolin-2-yl]-N-(1H-tetrazol-5-ylmethyl)acetamide]
